These are literature values, as cited in patent US11737976B2, “Drug delivery means” (priority 2006, dated 2023).

Like-named read-outs stand apart in the source and are kept apart here.

In data set [1] the test system is endothelial and smooth muscle cells.
In data set [2] the test system is oxidized cholesterols present in the plasma. The note with it: increased concentrations of vitamin E in the blood; some oxidized cholesterols, not all; not reversed once packed into plaques.
The subject of data set [3] is arterial smooth muscle cell.

As for `CC(C)CCC[C@@H](C)[C@H]1CC[C@H]2[C@@H]3[C@@H](O)C=C4C[C@@H](O)CC[C@]4(C)[C@H]3CC[C@]12C` [7B, 7β-hydroxycholesterol], the apoptosis in fibroblasts result in the data set on fibroblasts (necrosis occurred instead) is “did not cause apoptosis”. In addition, in data set [1] (cells of the vascular wall), the induction of apoptosis entry is “able to induce apoptosis”.
In the case of vitamin E, the “lowering the amount of oxidized cholesterols in plasma” value in data set [2] was “effective in lowering the amount of some oxidized cholesterols”.
For `C[C@H](CCCC(C)(C)O)[C@H]1CC[C@H]2[C@@H]3CC=C4C[C@@H](O)CC[C@]4(C)[C@H]3CC[C@]12C` [25OH, 25-hydroxycholesterol], the “changes in the arterial smooth muscle cell” value in data set [3] is on record as “causes changes”.
In the case of `CC(C)CCC[C@@H](C)[C@H]1CC[C@H]2[C@@H]3C(=O)C=C4C[C@@H](O)CC[C@]4(C)[C@H]3CC[C@]12C` [7-Keto, 5-Cholesten-3β-ol-7-one], in the data set on fibroblasts, the apoptosis in fibroblasts result is given as “did not cause apoptosis”. Moreover, the “cytotoxicity relative to the other oxidized cholesterols studied” value with cells is “most cytotoxic”. Further, in data set [1], the induction of apoptosis entry is listed as “able to induce apoptosis”.
